# Experiments:
# [1] = Antiinflammatory activity in human neutrophil assessed as inhibition of FMLP/CB-induced superoxide anion generation pretreated for 5 mins by spectrophotometry; format: functional, cell-based
# [2] = Antiinflammatory activity in human neutrophil assessed as inhibition of FMLP/CB-induced elastase release for 5 mins; format: functional, cell-based
SMILES,IC50 [1] [µM],IC50 [2] [µM]
CC(C)=CCC/C(C)=C/COc1c2occc2cc2ccc(=O)oc12,1.9,> 10
O=c1cc(N2CCOCC2)oc2c(-c3ccccc3)cccc12 [LY-294002],1,1.5
CC(C)=CCOc1c2occc2cc2ccc(=O)oc12 [PENTOSALEN],3.5,> 10
CC(C)=CCOc1c2ccoc2cc2oc(=O)ccc12 [ISOIMPERATORIN],4.2,> 10
COC(=O)c1ccc2[nH]c3ccccc3c2c1,4.3,> 10
CC(C)=CCc1c(C=O)cc(O)c2[nH]c3ccccc3c12,> 10,2
COc1ccc2[nH]c3cc(OC)c(C=O)cc3c2c1 [GLYCOZOLIDAL],4.6,> 10
O=Cc1cc(O)c2[nH]c3ccccc3c2c1 [O-DEMETHYLMURRAYANINE],3.5,6.9
CC(C)=CCc1c(O)ccc2ccc(=O)oc12 [OSTHENOL],2.6,> 10
C/C(=C\COc1c2occc2cc2ccc(=O)oc12)C[C@H]1C[C@H](C)C(=O)O1,8.4,> 10
CC1=C[C@H](C/C(C)=C\COc2c3occc3cc3ccc(=O)oc23)OC1=O,6.1,> 10
COc1cc(C=O)cc2c1[nH]c1ccccc12 [MURRAYANINE],3.5,3.9
